Experiments:
[1] = test system: DH5 alpha; experiment: Compound was tested for its ability to inhibit growth of Escherichia coli DH5 alpha cells at 100 uM concentration; complete arrest of cell growth observed; assay type: functional, cell-based
[2] = test system: DH5 alpha; experiment: Compound was tested for its ability to inhibit growth of Escherichia coli DH5 alpha cells at 100 uM concentration; slight growth inhibition observed; assay type: functional, cell-based
[3] = test system: DH5 alpha; experiment: Compound was irradiated and tested for its ability to inhibit growth of Escherichia coli DH5 alpha cells at 100 uM concentration; cell growth almost completely inhibited.; assay type: functional, cell-based
[4] = T1/2 was determined; assay type: ADME

SMILES | inhibition [1] | inhibition [2] | inhibition [3] | half-life [4]
O=c1[nH]c(=O)n([C@H]2C[C@H](O)[C@@H](CO)O2)cc1F | complete arrest of cell growth observed | – | – | –
COc1cc(COC(=O)OC[C@H]2O[C@@H](n3cc(F)c(=O)[nH]c3=O)C[C@@H]2O)c([N+](=O)[O-])cc1OC | – | cell growth almost completely inhibited | cell growth almost completely inhibited | 6 min

— ChEMBL document CHEMBL1130951, “A photoactivated prodrug” (Bioorg Med Chem Lett, 1998)
